Source: PubChem BioAssay (NCI)
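48-hour exposure; five concentrations; linearly interpolated endpoints. GI50 = concentration required for 50% inhibition of growth. TGI is the concentration that stops growth completely.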

Legend:
Assay in all cases: NCI tumour cell line growth inhibition, 48 h
[1] = test system: COLO 205 colon
[2] = test system: HCT-116 colon
[3] = test system: HOP-62 NSCLC
[4] = test system: K-562 leukemia
[5] = test system: LOX IMVI melanoma
[6] = test system: MCF7 breast
[7] = test system: SK-MEL-2 melanoma
[8] = test system: SN12C renal
[9] = test system: SNB-19 CNS
[10] = test system: HL-60(TB) leukemia

SMILES: [N-]=[N+]=Nc1c([N+](=O)[O-])c(Cl)nc2ccccc12
- TGI [1]: 3.29 µM
- TGI [2]: 3.09 µM
- TGI [3]: 41.4 µM
- TGI [4]: 1.74 µM
- TGI [5]: 3.07 µM
- TGI [6]: 4.25 µM
- TGI [7]: 5.07 µM
- TGI [8]: 5.32 µM
- TGI [9]: 27.8 µM

SMILES: O=P1(Oc2ccc(Cl)cc2)OCCS1 (stereo not drawn)
- TGI [1]: > 100 µM
- TGI [2]: > 100 µM
- TGI [10]: > 100 µM
- TGI [3]: > 100 µM
- TGI [5]: > 100 µM
- TGI [7]: > 100 µM
- TGI [8]: > 100 µM
- TGI [9]: > 100 µM

SMILES: O=C1c2nn(-c3ccccc3)nc2C(c2ccccc2)N1c1ccccc1 (stereo not drawn)
- TGI [1]: > 100 µM
- TGI [2]: > 100 µM
- TGI [3]: 96.6 µM
- TGI [4]: > 100 µM
- TGI [5]: > 100 µM
- TGI [7]: > 100 µM
- TGI [8]: > 100 µM
- TGI [9]: > 100 µM

SMILES: CN(C)CC(CO)(CN(C)C)CN(C)C
- TGI [1]: > 100 µM
- TGI [2]: > 100 µM
- TGI [10]: > 100 µM
- TGI [3]: > 100 µM
- TGI [4]: > 100 µM
- TGI [6]: > 100 µM
- TGI [8]: > 100 µM
- TGI [9]: > 100 µM

SMILES: CCOc1ccc2c(ccc(/C=C\c3cc(C)c4cccnc4c3O)[n+]2C)c1
- TGI [1]: 5.82 µM
- TGI [2]: 25 µM
- TGI [10]: 1.05 µM
- TGI [3]: 28 µM
- TGI [4]: 26.8 µM
- TGI [5]: 66.4 µM
- TGI [7]: 3.24 µM
- TGI [8]: 15.5 µM
- TGI [9]: 30.7 µM

SMILES: O=C1c2ccccc2C(=O)N1CCCCCCNOCCCN1C(=O)c2ccccc2C1=O
- TGI [1]: > 100 µM
- TGI [2]: > 100 µM
- TGI [3]: > 100 µM
- TGI [4]: 98.2 µM
- TGI [5]: > 100 µM
- TGI [6]: 88.4 µM
- TGI [7]: 47.8 µM
- TGI [8]: > 100 µM
- TGI [9]: > 100 µM

SMILES: CN1CCN(Cc2ccc(NC(=O)c3ccc(C#N)c(C#Cc4cnc(N)c5ncccc45)c3)cc2C(F)(F)F)CC1
- GI50 [1]: 4.02 µM
- TGI [1]: > 100 µM
- GI50 [10]: 14.5 µM
- TGI [10]: > 100 µM
- GI50 [7]: 2.45 µM
- TGI [7]: > 100 µM
- GI50 [8]: 2.19 µM
- TGI [8]: 5.43 µM
- GI50 [9]: 3.87 µM
- TGI [9]: > 100 µM

SMILES: O=C1C2CCC(C2)C12CC1(c3ccccc3)C(=O)c3ccccc3N1O2 (stereo not drawn)
- TGI [1]: > 100 µM
- TGI [2]: > 100 µM
- TGI [10]: > 100 µM
- TGI [3]: > 100 µM
- TGI [4]: > 100 µM
- TGI [8]: > 100 µM
- TGI [9]: > 100 µM

SMILES: CC12CC[C@H](O)C(C)(C)[C@H]1CC[C@](C)(O)C2COc1ccc2ccc(=O)oc2c1 (stereo partly drawn)
- TGI [1]: > 100 µM
- TGI [2]: > 100 µM
- TGI [10]: > 100 µM
- TGI [3]: > 100 µM
- TGI [4]: > 100 µM
- TGI [5]: > 100 µM
- TGI [7]: > 100 µM
- TGI [8]: > 100 µM
- TGI [9]: > 100 µM

SMILES: COc1ccc(C2=NN(c3ccccc3)C(c3cc4cc(Br)ccc4nc3Cl)C2)cc1 (stereo not drawn)
- TGI [1]: > 25 µM
- TGI [2]: > 25 µM
- TGI [10]: > 25 µM
- TGI [3]: > 25 µM
- TGI [4]: > 25 µM
- TGI [5]: > 25 µM
- TGI [7]: > 25 µM
- TGI [8]: > 25 µM
- TGI [9]: > 25 µM

SMILES: COP1(=O)NCc2ncccc2O1 (stereo not drawn)
- TGI [1]: > 100 µM
- TGI [2]: > 100 µM
- TGI [3]: > 100 µM
- TGI [4]: > 100 µM
- TGI [5]: > 100 µM
- TGI [6]: > 100 µM
- TGI [7]: > 100 µM
- TGI [8]: > 100 µM
- TGI [9]: > 100 µM

SMILES: COc1ccc([N-]/C(=N\n2c(=O)c(C)nn(C)c2=S)N(c2ccc(OC)cc2)c2nn3c(=O)c(C)n[n+](C)c3s2)cc1
- TGI [1]: > 100 µM
- TGI [2]: > 100 µM
- TGI [10]: > 100 µM
- TGI [3]: > 100 µM
- TGI [4]: > 100 µM
- TGI [5]: > 100 µM
- TGI [8]: > 100 µM
- TGI [9]: > 100 µM

SMILES: Cc1ccc(/C(=C/C=C(C#N)C#N)Sc2cc(Cl)ccc2Cl)cc1
- TGI [1]: 20.4 µM
- TGI [2]: 5.06 µM
- TGI [3]: > 100 µM
- TGI [5]: 3.33 µM
- TGI [6]: > 100 µM
- TGI [7]: > 100 µM
- TGI [8]: 13.9 µM
- TGI [9]: 22.3 µM

SMILES: O=c1c2ccccc2nc(-c2ccccc2)n1NC(=S)Nc1ccc(Cl)cc1[N+](=O)[O-]
- TGI [1]: > 100 µM
- TGI [2]: > 100 µM
- TGI [10]: > 100 µM
- TGI [3]: > 100 µM
- TGI [4]: > 100 µM
- TGI [5]: > 100 µM
- TGI [7]: > 100 µM
- TGI [8]: > 100 µM

SMILES: CC(C)c1cccc(C(C)C)c1NC(=O)C(=O)C(C(=O)c1ccc2ccccc2c1)C1OC(=O)c2ccccc21 (stereo not drawn)
- TGI [1]: > 100 µM
- TGI [2]: > 100 µM
- TGI [3]: > 100 µM
- TGI [4]: > 100 µM
- TGI [5]: > 100 µM
- TGI [7]: > 100 µM
- TGI [8]: > 100 µM
- TGI [9]: > 100 µM

SMILES: COc1ccc(C2ON(c3ccccn3)CC=C2C)cc1 (stereo not drawn)
- TGI [1]: > 100 µM
- TGI [10]: > 100 µM
- TGI [3]: > 100 µM
- TGI [4]: > 100 µM
- TGI [5]: > 100 µM
- TGI [7]: > 100 µM
- TGI [8]: > 100 µM
- TGI [9]: > 100 µM

SMILES: C=C(C)[C@@]1(O)CCC[C@H]1NC(=O)OC(C)(C)C
- TGI [1]: > 100 µM
- TGI [2]: > 100 µM
- TGI [3]: > 100 µM
- TGI [5]: > 100 µM
- TGI [6]: > 100 µM
- TGI [7]: > 100 µM
- TGI [8]: > 100 µM
- TGI [9]: > 100 µM
